Measurements: patent US20250270202A1, “SUBSTITUTED 4-AMINOISOINDOLINE COMPOUND, PREPARATION METHOD THEREFOR, PHARMACEUTICAL COMPOSITION THEREOF, AND USE THEREOF” (SHANGHAI INSTITUTE OF MATERIA MEDICA, CHINESE ACADEMY OF …, priority 2022, published 2025)
Where two headings read alike, the source gives them in different places.

Tests used:
Format in all cases: cell-based
MM.1S cells = assay: Effect of the compound on MM.1S cell proliferation (MTS, 7 days); conditions: Homo sapiens, MM1.S
Procedure: MM.1S cells were cultured in 1640 medium supplemented with 10% fetal bovine serum, then collected and diluted to the desired cell concentration after 7 days of treatment. A total of 180 μL of cell suspension was added to each well in a 96-well cell plate, ensuring 20,000 cells per well. For the control group, 20 μL of 0.2% DMSO was added to each well. Compounds were diluted in a 5-step gradient from a 10 mM stock solution, and 20 μL of each dilution was added to the compound-containing wells (with a final DMSO concentration of 0.2%). The cells were incubated in a 37° C., 5% CO2 incubator for 7 days. Afterward, 20 μL of the MTS reagent (Promega, G5430) was added to each well, followed by incubation for 3-4 hours in a 37° C., 5% CO2 incubator. Absorbance at 490 nm was measured using a microplate reader, with 690 nm absorbance as the background. The final raw data was calculated as OD490-OD690. The compound inhibition rate was calculated using the formula: […]
The IC50 for the compound's proliferative inhibition was fitted using GraphPad Prism 5.0. The experiment was repeated three times, and the average and standard deviation were calculated using three parallel experiments per trial.

Mino cells = assay: Inhibition of cell proliferation of Mino cells (MTS, 3 days); conditions: Homo sapiens, MINO
Procedure: Mino cells were cultured with RPMI-1640 medium supplemented with 15% fetal bovine serum, and collected. The cell concentration was diluted according to a 3-day treatment period, and 90 μL of the cell suspension was added to each well of a 96-well plate, resulting in 8000 cells per well. For control wells, 10 μL of DMSO at a final concentration of 0.2% was added. The compounds were diluted in a 5-fold gradient from a 10 mM stock solution, and 10 μL of each compound solution was added to the experimental wells (with a final DMSO concentration of 0.2%). The cells were incubated in a 37° C., 5% CO2 incubator for 3 days. After preparing the reaction mixture using the MTS reagent kit (Promega, G5430), 20 μL was added to each well, and the cells were incubated for 3-4 hours at 37° C., 5% CO2.
The absorbance at 490 nm was read using a microplate reader, with the absorbance at 690 nm used as the background. The final raw data was calculated as OD490-OD690. The inhibition rate of the compounds was calculated using the formula: Inhibition rate=(OD DMSO−OD compound)/(OD DMSO−OD blank)×100%. The IC50 values for cell proliferation inhibition of the compounds were fitted using GraphPad Prism 5.0. The experiment was repeated three times, with the average and standard deviation calculated from three parallel experiments each time.

MV-4-11 cells = assay: Inhibition of MV-4-11 cell proliferation (MTS, 7 days); conditions: Homo sapiens
Procedure: MV-4-11 cells were cultured in IMDM with 10% fetal bovine serum, collected, and diluted to the appropriate cell concentration for a 7-day treatment period. A 96-well plate was used, and 180 μL of cell suspension was added to each well, resulting in a cell count of 2,000 per well. For the control wells, 20 μL of DMSO at a final concentration of 0.2% was added. The compounds were diluted from a 10 mM stock solution in a five-fold gradient, and 20 μL was added to the compound wells (with a final DMSO concentration of 0.2%). The cells were incubated in a 37° C., 5% CO2 incubator for 7 days. After preparing the reaction solution using the MTS reagent kit (Promega, G5430), 20 μL was added to each well, and the cells were incubated in the incubator for 3-4 hours. The absorbance at 490 nm was measured using a microplate reader, with the absorbance at 690 nm as the background value. The final data was calculated as OD490-OD690. The inhibition rate of the compounds was calculated using the formula: […]
The IC50 values for proliferation inhibition were calculated using GraphPad Prism 5.0. The experiments were repeated three times, with three parallel experiments for each, and the mean and standard deviation were calculated.
The cell activity test results are shown in Table 3: A indicates IC50<1 μM, B indicates 1 µM≤IC50≤20 μM, and C indicates IC50>20 μM.

[1] = 168 h, 7 days, MTS, Table 1, read-out: MM.1S Cells Inhibition Activity IC50
[2] = 72 h, 3 days, MTS, Table 2, read-out: Mino Cells Inhibition Activity IC50
[3] = MV4-11, 168 h, 7 days, MTS, Table 3, read-out: MV-4-11 Cells Inhibition Activity IC50
[4] = Table 4, read-out: Inhibitory Activity of Compounds on Cell Proliferation MM.1S IC50
[5] = Table 4, read-out: Inhibitory Activity of Compounds on Cell Proliferation Mino IC50
[6] = MV4-11, Table 4, values in μM, read-out: Inhibitory Activity of Compounds on Cell Proliferation MV-4-11 IC50

| SMILES | IC50 (MM.1S cells; [1]) [µM] | IC50 (Mino cells; [2]) [µM] | IC50 (MV-4-11 cells; [3]) [nM] | IC50 (MM.1S cells; [4]) [µM] | IC50 (Mino cells; [5]) [µM] | IC50 (MV-4-11 cells; MV4-11, Table 4, values in nM, read-out: Inhibitory Activity of Compounds on Cell Proliferation MV-4-11 IC50) [nM] | IC50 (MV-4-11 cells; [6]) [nM] |
| --- | --- | --- | --- | --- | --- | --- | --- |
| O=C1CCC(N2C(=O)c3cccc(NCc4ncc(-c5cccc(C(F)(F)F)c5)o4)c3C2=O)C(=O)N1 (stereo not drawn) [Example 61] | 0.03 to 0.15 | > 0.12 | > 20000 | – | – | – | – |
| O=C1CCC(N2C(=O)c3cccc(NCc4cnc(C5CCN(Cc6ccc(F)cc6)CC5)o4)c3C2=O)C(=O)N1 (stereo not drawn) [Example 12] | 0.03 to 0.15 | > 0.12 | < 1000 | – | – | – | – |
| O=C1CCC(N2C(=O)c3cccc(NCc4cnc(-c5ccc(Cl)cc5)s4)c3C2=O)C(=O)N1 (stereo not drawn) [Example 32] | < 0.015 | 0.06 to 0.12 | < 1000 | – | – | – | – |
| Cc1cccc(-c2ncc(CNc3cccc4c3C(=O)N(C3CCC(=O)NC3=O)C4=O)o2)c1 (stereo not drawn) [Example 20] | < 0.015 | < 0.06 | < 1000 | – | – | – | – |
| O=C1CCC(N2C(=O)c3cccc(NCc4cnc(-c5cccc(C(F)(F)F)c5)o4)c3C2=O)C(=O)N1 (stereo not drawn) [Example 58] | 0.015 to 0.03 | > 0.12 | < 1000 | – | – | – | – |
| O=C1CCC(N2C(=O)c3cccc(NCc4cnc(-c5cc(Cl)ccc5Cl)o4)c3C2=O)C(=O)N1 (stereo not drawn) [Example 77] | 0.03 to 0.15 | > 0.12 | 1000 to 20000 | – | – | – | – |
| O=C1CCC(N2C(=O)c3cccc(NCc4ncc(-c5ccccc5Cl)o4)c3C2=O)C(=O)N1 (stereo not drawn) [Example 66, 4-(((5-(2-Chlorophenyl)oxazol-2-yl)methyl)amino)-2-(2,6-Dioxopiperidin-3-yl)isoindolin-1,3-dione] | 0.03 to 0.15 | > 0.12 | < 1000 | – | – | – | – |
| O=C1CCC(N2C(=O)c3cccc(NCc4cnc(C5CCN(C(=O)C6(C(F)(F)F)CCC6)CC5)o4)c3C2=O)C(=O)N1 (stereo not drawn) [Example 4] | < 0.015 | < 0.06 | < 1000 | – | – | – | – |
| O=C1CCC(N2C(=O)c3cccc(NCc4cnc(-c5ccc(C(F)(F)F)cc5)o4)c3C2=O)C(=O)N1 (stereo not drawn) [Example 57] | < 0.015 | > 0.12 | < 1000 | – | – | – | – |
| O=C1CCC(N2C(=O)c3cccc(NCc4ncc(-c5ccc(C(F)(F)F)cc5)o4)c3C2=O)C(=O)N1 (stereo not drawn) [Example 60] | 0.015 to 0.03 | > 0.12 | 1000 to 20000 | – | – | – | – |
| O=C1CCC(N2C(=O)c3cccc(OCc4cn(-c5ccc(OC(F)(F)F)cc5)nn4)c3C2=O)C(=O)N1 (stereo not drawn) [Prior Art Disclosed Compound-3, reference compound] | – | – | – | > 20 | 0.68 | > 20000 | – |
| O=C1CCC(N2C(=O)c3cccc(NCc4ncc(-c5ccc(F)cc5)o4)c3C2=O)C(=O)N1 (stereo not drawn) [Example 72, 2-(2,6-Dioxopiperidin-3-yl)-4-(((5-(4-Fluorophenyl)oxazol-2-yl)methyl)amino)isoindolin-1,3-dione] | < 0.015 | > 0.12 | < 1000 | – | – | – | – |
| O=C1CCC(N2C(=O)c3cccc(NCc4cnc(-c5cccc(OC6CC6)c5)o4)c3C2=O)C(=O)N1 (stereo not drawn) [Example 96, 4-(((2-(Cyclopropoxyphenyl)oxazol-5-yl)methyl)amino)-2-(2,6-Dioxopiperidine-3-yl)isoindoline-1,3-dione] | < 0.015 | > 0.12 | < 1000 | – | – | – | – |
| Cc1ccc(-c2ncc(CNc3cccc4c3C(=O)N(C3CCC(=O)NC3=O)C4=O)o2)cc1 (stereo not drawn) [Example 19] | < 0.015 | < 0.06 | < 1000 | – | – | – | – |
| COc1cccc(-c2ncc(CNc3cccc4c3C(=O)N(C3CCC(=O)NC3=O)C4=O)o2)c1 (stereo not drawn) [Example 17] | < 0.015 | 0.06 to 0.12 | 1000 to 20000 | – | – | – | – |
| O=C1CCC(N2C(=O)c3cccc(NCc4cnc(C5CCN(C(=O)c6ccc(F)cc6)CC5)o4)c3C2=O)C(=O)N1 (stereo not drawn) [Example 5] | 0.015 to 0.03 | > 0.12 | 1000 to 20000 | – | – | – | – |
| O=C1CCC(N2C(=O)c3cccc(NCc4cnc(-c5ccc(OC(F)(F)F)cc5)s4)c3C2=O)C(=O)N1 (stereo not drawn) [Example 35] | < 0.015 | < 0.06 | < 1000 | – | – | – | – |
| N#Cc1ccc(C(=O)N2CCC(c3ncc(CNc4cccc5c4C(=O)N(C4CCC(=O)NC4=O)C5=O)o3)CC2)c(F)c1 (stereo not drawn) [Example 6, 4-(4-(5-(((2-(2,6-dioxopiperidin-3-yl)-1,3-dioxoisindole-4-yl)amino)methyl)oxazol-2-yl)piperidine-1-carbonyl)-3-fluorobenzonitrile] | 0.03 to 0.15 | 0.06 to 0.12 | 1000 to 20000 | – | – | – | – |
| O=C1CCC(N2C(=O)c3cccc(NCc4cnc(-c5ccc(Cl)cc5Cl)o4)c3C2=O)C(=O)N1 (stereo not drawn) [Example 76, 4-(((2-(2,4-Dichlorophenyl)oxazol-5-yl)methyl)amino)-2-(2,6-Dioxopiperidin-3-yl)isoindolin-1,3-dione] | 0.03 to 0.15 | > 0.12 | < 1000 | – | – | – | – |
| CN(Cc1cnc(-c2ccc(Cl)cc2)o1)c1cccc2c1C(=O)N(C1CCC(=O)NC1=O)C2=O (stereo not drawn) [Example Ctrl-3, 4-(((2-(4-chlorophenyl)oxazol-5-yl)methyl)(methyl)amino)-2-(2,6-dioxopiperidin-3-yl)isoindoline-1,3-dione, reference compound] | – | – | – | > 0.03 | > 0.12 | – | 1000 to 20000 |
| O=C1CCC(N2C(=O)c3cccc(NCc4cnc(-c5ccc(Cl)cc5)o4)c3C2=O)C(=O)N1 (stereo not drawn) [Example 25] | < 0.015 | < 0.06 | < 1000 | < 0.015 | < 0.06 | – | < 1000 |
| O=C1CCC(N2C(=O)c3cccc(NCc4cnc([C@H]5CC[C@H](Cc6ccc(F)cc6)CC5)o4)c3C2=O)C(=O)N1 (stereo partly drawn) [Example 106, 2-(2,6-Dioxopiperidine-3-yl)-4-(((2-((1R,4R)-4-(4-Fluorobenzyl)cyclohexyl)oxazol-5-yl)methyl)amino)isoindoline-1,3-dione] | 0.03 to 0.15 | > 0.12 | < 1000 | – | – | – | – |
| O=C1CCC(N2C(=O)c3cccc(NCc4cnc(-c5ccccc5OC5CC5)o4)c3C2=O)C(=O)N1 (stereo not drawn) [Example 97, 4-(((2-(2-Cyclopropoxyphenyl)oxazol-5-yl)methyl)amino)-2-(2,6-Dioxopiperidine-3-yl)isoindoline-1,3-dione] | < 0.015 | > 0.12 | 1000 to 20000 | – | – | – | – |
| O=C1CCC(N2C(=O)c3cccc(NCc4cnc(-c5ccc(O[C@@H]6CCOC6)cc5)o4)c3C2=O)C(=O)N1 (stereo partly drawn) [Example 54] | < 0.015 | < 0.06 | < 1000 | – | – | – | – |
| O=C1CCC(N2C(=O)c3cccc(NCc4cnc(-c5ccc(Br)cc5)o4)c3C2=O)C(=O)N1 (stereo not drawn) [Example 23] | < 0.015 | > 0.12 | < 1000 | – | – | – | – |
| N#Cc1ccc(-c2ncc(CNc3cccc4c3C(=O)N(C3CCC(=O)NC3=O)C4=O)s2)cc1 (stereo not drawn) [Example 33, 4-(5-(((2-(2,6-dioxopiperidin-3-yl)-1,3-dioxoisoindolin-4-yl)amino)methyl)thiazol-2-yl)benzonitrile] | < 0.015 | 0.06 to 0.12 | < 1000 | – | – | – | – |
| O=C1CCC(N2C(=O)c3cccc(NCc4cnc(-c5ccc(Cl)c(Cl)c5)o4)c3C2=O)C(=O)N1 (stereo not drawn) [Example 73, 4-(((2-(3,4-Dichlorophenyl)oxazol-5-yl)methyl)amino)-2-(2,6-Dioxopiperidin-3-yl)isoindolin-1,3-dione] | 0.015 to 0.03 | > 0.12 | < 1000 | – | – | – | – |
